Measured values published in patent publication US20260159484A1, “AKT3 MODULATORS” (GEORGIAMUNE LLC, priority 2021, published 2026).

Biological target: T1, Akt3 (Mus musculus, UniProt Q9WUA6)
T1 construct: endogenous in cells; host or cells: primary CD4 conventional T cells (CD4+/CD25-) from C57BL/6 mice
Experiment: Foxp3 induction assay (iTreg induction from CD4 conventional T cells); reported as Akt3 inhibition activity
Assay type: cell-based
Details: Foxp3 induction in CD4 Tconvs from C57/B16 mice, anti-CD3/anti-CD28, IL2, TGF-β, 3 days of culture, flow cytometry
Method: Sorted or enriched (Miltenyi magnetic separation) CD4 conventional T cells (Tconvs -CD4+/CD25) from C57/B16 mice were used for the induction of iTregs. A 10 μg/mL plate-bound anti-CD3 antibody (50ul per well for 96-well plate), 2.5 μg/mL of soluble anti-CD28 antibody, 100 IU/mL of IL2 and 5 ng/mL of TGF-β in absence or presence of different concentrations of drug (usually titrating from 0.01 uM to 10 uM) were used. As negative control for induction, samples without TGF-β were used.
After 3 days of culture in presence of stimulation, TGF-β and drug, cells were stained with fixable live/dead cell stain (Life Technologies, NY) for gating and exclusion of toxic doses. The mouse Foxp3 buffer kit was used to fix and permeabilize cells according to the manufacturer's instructions (BD Bioscience, San Jose, CA). The anti-CD4 antibody and anti-Foxp3 antibody were used to stain the cells. After staining, cells were acquired using flow cytometer.

T1 sequence (Q9WUA6 whole entry): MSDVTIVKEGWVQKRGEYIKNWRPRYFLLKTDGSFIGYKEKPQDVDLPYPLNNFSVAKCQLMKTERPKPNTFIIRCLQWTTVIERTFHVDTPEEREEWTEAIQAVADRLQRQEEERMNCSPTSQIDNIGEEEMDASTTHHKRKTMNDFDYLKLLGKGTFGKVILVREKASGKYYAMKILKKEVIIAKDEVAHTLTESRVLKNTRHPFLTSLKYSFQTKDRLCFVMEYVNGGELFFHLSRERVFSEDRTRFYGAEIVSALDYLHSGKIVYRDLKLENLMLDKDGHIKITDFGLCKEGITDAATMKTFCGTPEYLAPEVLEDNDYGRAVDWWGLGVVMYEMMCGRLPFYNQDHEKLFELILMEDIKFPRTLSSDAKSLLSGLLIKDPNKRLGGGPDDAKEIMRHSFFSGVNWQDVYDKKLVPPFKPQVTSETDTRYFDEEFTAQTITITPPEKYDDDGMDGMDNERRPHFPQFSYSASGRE

Row | Compound | IC50 [µM]
1 | Cc1cnc2ccccc2c1Nc1ccc(CC(=O)Nc2ccccc2S(N)(=O)=O)cc1 [Compound 1, 2-(4-((3-methylquinolin-4-yl)amino)phenyl)-N-(2-sulfamoylphenyl)acetamide] | < 1
2 | CC(=O)c1ccccc1NC(=O)c1ccc(Nc2c(C)cnc3ccccc23)cc1 [Compound 2, N-(2-acetylphenyl)-4-((3-methylquinolin-4-yl)amino)benzamide] | < 1

Next, values leading:

Row | IC50 [µM] | Compound
3 | < 1 | CC(=O)c1ccccc1NC(=O)Cc1ccc(Nc2c(C)cnc3ccccc23)cc1 [Compound 3, N-(2-acetylphenyl)-2-(4-((3-methylquinolin-4-yl)amino)phenyl)acetamide]
4 | < 2 | CC(=O)c1cccc(NC(=O)Cc2ccc(Nc3cc(C)nc4ccccc34)cc2)c1 [Compound 5, N-(3-acetylphenyl)-2-(4-((2-methylquinolin-4-yl)amino)phenyl)acetamide]
5 | < 5 | CC(=O)c1cnccc1NC(=O)Cc1ccc(Nc2cc(C)nc3ccccc23)cc1 [Compound 6, N-(3-acetylpyridin-4-yl)-2-(4-((2-methylquinolin-4-yl)amino)phenyl)acetamide]
